Data as given in US20070213359A1 (ACADIA Pharmaceuticals Inc., priority 2005, published 2007).
Where two headings read alike, the source gives them in different places.

Tests used:
Ghrelin receptor = Ghrelin receptor (Homo sapiens, UniProt Q92847); test: Receptor Selection and Amplification Technology (R-SAT) assay; type: cell-based; parameters: expressed in transfected cells; host or cells: NIH3T3; details: for Emax: read-out: RSAT Eff(%)
GHSR1a receptor = target: T1, GHSR1a receptor (Homo sapiens, UniProt Q92847); test: 125I-Ghrelin binding assay; details: Binding pKi
T1 construct: expressed in transfected cells; host or cells: HEK293 (membranes)
Method: Plasmid DNA containing the GHSR1a receptor (12.5 ug/dish) in 0.675 ml DMEM was transfected into the cells by mixing with 180 ul PolyFect, 15 min later mixing in 2.25 ml 10% CS/DMEM, and transferring the mixture into the dish. At 16-18 h post transfection, medium was replaced with 25 ml fresh 10% FCS/1% PSG/DMEM to each dish for another 18-20 h. At approximately 48 hours post-transfection, cells were harvested in ice-cold membrane buffer (20 mM HEPES, 6 mM MgCl2, 1 mM EDTA, pH to 7.2) using a cell scraper, and pelleted by centrifugation.
Pelleted cells were added to a nitrogen cavitation chamber and 900 bar of pressure applied for 30 min. The pressure was slowly released the cavitated cells collected in 50 ml falcon tubes. The tubes were centrifuged at 1000 rpm, 4° C. for 10 min, and the supernatant collected. This centrifugation and collection was repeated two more times until the supernatant was free of precipitate (membranes are still in suspension). The supernatant was poured into a 50 ml centrifuge tube and centrifuged at 10.000 rpm, 4° C. for 20 min. The supernatant was discarded and the pellet re-suspended in 750 μl membrane binding buffer using a chilled 1 ml syringe with 25G5/8 needle to re-suspend membranes. The protein concentration was determined using the BioRad Protein Assay Dye Reagent according to the manufacturers instructions. The protein concentration was adjusted to 5 mg/ml and aliquots snap-frozed and stored at −80 C until use.
Membranes were thawed rapidly; diluted with binding buffer (25 mM Hepes+5 mM MgCl2, 1 mM CaCl2, 2.5 mM EDTA and 0.2% BSA) to a protein concentration of 0.8 ug/30 ul and placed on ice. 96-well plates (U-bottom wells) were prepared with serial dilutions (8 doses, 40 ul/w) of the test compounds. Membranes (30 uL/well) were then added, and incubated with test ligands for 30 min at room temperature with shaking. […] Binding was terminated by filtration through GF/B filters (presoaked with 0.1% polyethylenimine) with a Brandel 96-well harvester. The filters were washed with ice-cold binding buffer (150 ml/plate) and allowed to air-dry for 30 min. 50 ul MicroScient-20 cocktail was added to each dried well, the plates were sealed, and counted for 2 min/well using a TopCount scintillation counter (Packard).

[1] = […], '—' not defined (nd used separately), read-out: RSAT pIC50 (converted)
[2] = displacement of 125I-ghrelin (0.053 nM), membranes of HEK293 cells transfected with GHSR1a, Cheng-Prussoff, '—' not defined

T1 sequence (Q92847 whole entry): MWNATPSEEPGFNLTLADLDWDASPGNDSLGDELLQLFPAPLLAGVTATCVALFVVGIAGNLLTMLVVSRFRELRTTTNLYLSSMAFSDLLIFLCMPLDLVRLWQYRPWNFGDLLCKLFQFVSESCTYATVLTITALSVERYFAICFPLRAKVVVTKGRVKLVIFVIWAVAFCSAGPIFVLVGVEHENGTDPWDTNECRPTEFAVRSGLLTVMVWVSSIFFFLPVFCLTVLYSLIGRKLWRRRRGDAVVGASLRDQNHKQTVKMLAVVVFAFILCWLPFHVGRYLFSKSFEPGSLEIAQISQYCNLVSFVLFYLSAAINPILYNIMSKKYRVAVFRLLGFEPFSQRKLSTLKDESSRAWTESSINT
Ghrelin receptor, sequence (Q92847 whole entry): as above

In the case of `COc1cccc2c(C(=O)NCc3cccc(C)c3)cn(CCCN3C4CCC3CC(Oc3ccc(Cl)cc3)C4)c12` (stereo not drawn), the IC50 (Ghrelin receptor; [1]) is reported as 0.631 nM, the Emax (Ghrelin receptor) is reported as 92% and the Ki (GHSR1a receptor; [2]) is reported as 50.1 nM.

Work on `COc1cccc2c(C(=O)C3CC3)cn(CCCN3CCCN(Cc4ccccc4Cl)CC3)c12` yielded an IC50 (Ghrelin receptor; [1]) of 0.794 nM, an Emax (Ghrelin receptor) of 99% and a Ki (GHSR1a receptor; [2]) of 7.94 nM.

`COc1cccc2c(C(=O)NCc3cccc(Cl)c3)cn(CCCN3C4CCC3CC(CCc3ccccc3)C4)c12` (stereo not drawn) gave an IC50 (Ghrelin receptor; [1]) of 1 nM, an Emax (Ghrelin receptor) of 115% and a Ki (GHSR1a receptor; [2]) of 7.94 nM.

`COc1cccc2c(C(=O)C3CC3)cn(CCCN3CCCN(Cc4ccc(F)cc4)CC3)c12` showed an IC50 (Ghrelin receptor; [1]) of 1.26 nM, an Emax (Ghrelin receptor) of 92% and a Ki (GHSR1a receptor; [2]) of 7.94 nM.

For `COc1cccc2c(C(=O)NCc3cccc(C)c3)cn(CCCN3C4CCC3CC(CC(=O)c3ccccc3)C4)c12` (stereo not drawn), the IC50 (Ghrelin receptor; [1]) was 1.58 nM, the Emax (Ghrelin receptor) was 106% and the Ki (GHSR1a receptor; [2]) was 2 nM.

In the case of `CCCCC[C@H]1C[C@H]2CC[C@@H](C1)N2CCCn1cc(C(=O)NCc2cccc(C)c2)c2cccc(OC)c21`, the IC50 (Ghrelin receptor; [1]) is reported as 2 nM, the Emax (Ghrelin receptor) is reported as 90% and the Ki (GHSR1a receptor; [2]) is reported as 50.1 nM.

`COc1cccc2c(C(=O)NCc3cccc(C)c3)cn(CCCN3CCC(c4nc5ccccc5s4)CC3)c12` gave an IC50 (Ghrelin receptor; [1]) of 2.51 nM, an Emax (Ghrelin receptor) of 94% and a Ki (GHSR1a receptor; [2]) of 63.1 nM.

`CCCCC1CCN(CCCn2cc(C(=O)NCc3cccc(Cl)c3)c3cccc(OC)c32)CC1` showed an IC50 (Ghrelin receptor; RSAT pIC50) of 3.98 nM, an Emax (Ghrelin receptor) of 94% and a Ki (GHSR1a receptor) of 50.1 nM.

`CCCCC1CCN(CCCn2cc(C(=O)C3CC3)c3cccc(OC)c32)CC1` gave an IC50 (Ghrelin receptor; [1]) of 3.98 nM, an Emax (Ghrelin receptor) of 95% and a Ki (GHSR1a receptor; [2]) of 398 nM.

With `CCCCC1CCN(CCCn2cc(C(=O)c3ccccc3)c3cccc(OC)c32)CC1` the IC50 (Ghrelin receptor; [1]) was 5.01 nM, the Emax (Ghrelin receptor) was 98% and the Ki (GHSR1a receptor; [2]) was 200 nM.

Compound `CC(=O)c1cn(CCCN2CCC(c3nc4ccccc4s3)CC2)c2c(Cl)cccc12` has an IC50 (Ghrelin receptor; [1]) of 5.01 nM, an Emax (Ghrelin receptor) of 117% and a Ki (GHSR1a receptor; [2]) of 398 nM.

For `COc1ccccc1C1CCN(CCCn2cc(C(=O)C3CC3)c3cccc(OC)c32)CC1`, the IC50 (Ghrelin receptor; [1]) was 5.01 nM, the Emax (Ghrelin receptor) was 102% and the Ki (GHSR1a receptor; [2]) was 158 nM.

Compound `COc1cccc2c(C(=O)NCC(C)C)cn(CCCN3C4CCC3CC(CC(=O)c3ccccc3)C4)c12` (stereo not drawn) has an IC50 (Ghrelin receptor; [1]) of 7.94 nM, an Emax (Ghrelin receptor) of 145% and a Ki (GHSR1a receptor; [2]) of 50.1 nM.

`COc1cccc2c(C(=O)NCc3cccc(C)c3)cn(CCCN3CCC(Oc4ccc(Cl)cc4)CC3)c12` showed an IC50 (Ghrelin receptor; [1]) of 7.94 nM, an Emax (Ghrelin receptor) of 115% and a Ki (GHSR1a receptor; [2]) of 126 nM.

In the case of `COc1cccc2c(C(=O)C3CC3)cn(CCCN3C4CCC3CC(CC(=O)c3ccc(Cl)cc3)C4)c12` (stereo not drawn), the IC50 (Ghrelin receptor; [1]) is reported as 7.94 nM, the Emax (Ghrelin receptor) is reported as 70% and the Ki (GHSR1a receptor; [2]) is reported as 39.8 nM.

With `CC(=O)c1cn(CCCN2C3CCC2CC(CC(=O)c2ccccc2)C3)c2c(Br)cccc12` (stereo not drawn) the IC50 (Ghrelin receptor; [1]) was 7.94 nM, the Emax (Ghrelin receptor) was 111% and the Ki (GHSR1a receptor; [2]) was 100 nM.

In the case of `COc1cccc2c(C(=O)NCc3cccc(C)c3)cn(CCCN3C4CCC3CC(CC(=O)c3ccc(Cl)cc3)C4)c12` (stereo not drawn), the IC50 (Ghrelin receptor; [1]) is reported as 10 nM, the Emax (Ghrelin receptor) is reported as 110% and the Ki (GHSR1a receptor; [2]) is reported as 15.8 nM.

For `COc1cccc2c(C(=O)NCc3cccc(C)c3)cn(CCCN3CCC(Oc4ccccc4Cl)CC3)c12`, the IC50 (Ghrelin receptor; [1]) was 12.6 nM, the Emax (Ghrelin receptor) was 96% and the Ki (GHSR1a receptor; [2]) was 79.4 nM.

Compound `COc1cccc2c(C(=O)NCc3cccc(C)c3)cn(CCCN3CCCN(CCc4ccccc4)CC3)c12` has an IC50 (Ghrelin receptor; [1]) of 12.6 nM, an Emax (Ghrelin receptor) of 110% and a Ki (GHSR1a receptor; [2]) of 15.8 nM.

In the case of `COc1cccc2c(C(=O)NCc3cccc(C)c3)cn(CCCN3CCCN(Cc4ccccc4Cl)CC3)c12`, the IC50 (Ghrelin receptor; [1]) is reported as 15.8 nM, the Emax (Ghrelin receptor) is reported as 119% and the Ki (GHSR1a receptor; [2]) is reported as 79.4 nM.

In the case of `COc1cccc2c(C(=O)NCc3cccc(C)c3)cn(CCCN3CCCN(Cc4ccc(F)cc4)CC3)c12`, the IC50 (Ghrelin receptor; [1]) is reported as 15.8 nM, the Emax (Ghrelin receptor) is reported as 129% and the Ki (GHSR1a receptor; [2]) is reported as 100 nM.

In the case of `COc1cccc2c(C(C)=O)cn(CCCN3CCC(N(C4CC4)S(=O)(=O)c4ccccc4)CC3)c12`, the IC50 (Ghrelin receptor; [1]) is reported as 15.8 nM, the Emax (Ghrelin receptor) is reported as 105% and the Ki (GHSR1a receptor; [2]) is reported as 2510 nM.

Compound `COc1cccc2c(C(=O)c3ccccc3)cn(CCCN3CCCN(CCc4ccccc4)CC3)c12` has an IC50 (Ghrelin receptor; [1]) of 15.8 nM, an Emax (Ghrelin receptor) of 124% and a Ki (GHSR1a receptor; [2]) of 25.1 nM.

With `COc1cccc2c(C(=O)NCc3cccc(Cl)c3)cn(CCCN3CCCN(CCc4ccccc4)CC3)c12` the IC50 (Ghrelin receptor; [1]) was 20 nM, the Emax (Ghrelin receptor) was 125% and the Ki (GHSR1a receptor; [2]) was 158 nM.

Work on `COc1cccc2c(C(=O)C3CC3)cn(CCCN3CCN(CCOc4ccc(Cl)cc4)CC3)c12` yielded an IC50 (Ghrelin receptor; [1]) of 20 nM, an Emax (Ghrelin receptor) of 122% and a Ki (GHSR1a receptor; [2]) of 126 nM.
